# Columns and labels:
# [1] = system: rice; test: Test B flood test rice; format: in vivo, Oryza sativa
# Outline: (§1)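 Each value is a visual injury score relative to controls, with 10 meaning complete control and 0 no effect. Evaluation took place twelve to sixteen days after the 2-leaf-stage plants were treated and kept in the greenhouse.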
# [2] = system: velvetleaf; test: Test B pre/postemergence velvetleaf; format: in vivo, Abutilon theophrasti
# Outline: (§2)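 Test chemicals in a non-phytotoxic solvent mixture with surfactant were sprayed preemergence onto planted seeds and postemergence onto plants 2 to 18 cm tall (1- to 4-leaf stage). After twelve to sixteen days in a greenhouse, injury was visually rated against untreated controls from 0 (no effect) to 10 (complete control).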
# [3] = system: bedstraw; test: Test B pre/postemergence bedstraw; format: in vivo, Galium aparine
# Outline: as §2
# [4] = system: rape; test: Test B pre/postemergence rape; format: in vivo, Brassica napus
# Outline: as §2
# [5] = system: sugar beet; test: Test B pre/postemergence sugar beet; format: in vivo, Beta vulgaris
# Outline: as §2
# [6] = system: surinam grass; test: Test B pre/postemergence surinam grass; format: in vivo, Brachiaria decumbens
# Outline: as §2
# [7] = system: wild oat; test: Test B pre/postemergence wild oat; format: in vivo, Avena fatua
# Outline: as §2
# [8] = system: soybean; test: Test B pre/postemergence soybean; format: in vivo, Glycine max
# Outline: as §2
# [9] = system: corn; test: Test B pre/postemergence corn; format: in vivo, Zea mays
# Outline: as §2
# [10] = system: giant foxtail; test: Test B pre/postemergence giant foxtail; format: in vivo, Setaria faberii
# Outline: as §2
# [11] = system: smallflower flatsedge; test: Test B flood test smallflower flatsedge; format: in vivo, Cyperus difformis
# Outline: as §1
# [12] = system: pigweed; test: Test B pre/postemergence pigweed; format: in vivo, Amaranthus retroflexus
# Outline: as §2
# [13] = system: duck salad; test: Test B flood test duck salad; format: in vivo, Heteranthera limosa
# Outline: as §1
# [14] = system: wheat; test: Test B pre/postemergence wheat; format: in vivo, Triticum aestivum
# Outline: as §2
# [15] = system: purple nutsedge; test: Test B pre/postemergence purple nutsedge; format: in vivo, Cyperus rotundus
# Outline: as §2
# [16] = system: cocklebur; test: Test B pre/postemergence cocklebur; format: in vivo, Xanthium strumarium
# Outline: as §2
# [17] = Postemergence (flood test species), Rate 125 g/ha, scale of 0 to 10 where 0 is no effect and 10 is complete control
# [18] = Rate 62 g/ha, Postemergence section, flood test species, scale of 0 to 10 where 0 is no effect and 10 is complete control
# [19] = Rate 250 g/ha, Postemergence (flood test), scale 0 to 10, 0 is no effect, 10 is complete control
# [20] = Rate 500 g/ha, listed under Postemergence (flood test species), scale 0 to 10
# [21] = Postemergence, Rate 125 g/ha, scale of 0 to 10 where 0 is no effect and 10 is complete control
# [22] = Preemergence, Rate 62 g/ha, scale 0 to 10 (0 no effect, 10 complete control)
# [23] = Preemergence, Rate 125 g/ha, 0 is no effect, 10 is complete control
# [24] = Preemergence, Rate 250 g/ha, scale 0 to 10, 0 is no effect, 10 is complete control
# [25] = Preemergence, Rate 500 g/ha, scale 0 to 10 (0 no effect, 10 complete control)
# [26] = Rate 62 g/ha, Postemergence, scale of 0 to 10 where 0 is no effect and 10 is complete control
# [27] = Rate 250 g/ha, Postemergence, scale 0 to 10, 0 is no effect, 10 is complete control
# [28] = Rate 500 g/ha, Postemergence, scale 0 to 10
smiles,measurement,setting,value
CC(C)N(C(=O)n1oc(=O)n(CCCl)c1=O)c1ccc(F)cc1 [Compound 148],Rice plant response rating,[1]; [17],0
same,Rice plant response rating,[1]; [18],0
same,"Plant response rating, Rice",[1]; [19],0
same,Rice plant response rating,[1]; [20],0
same,Velvetleaf plant response rating,[2]; [21],0
same,Velvetleaf plant response rating,[2]; [22],0
same,Velvetleaf plant response rating (0 to 10 scale),[2]; [23],6
same,Velvetleaf plant response rating,[2]; [24],8
same,Velvetleaf plant response rating,[2]; [25],8
same,Velvetleaf plant response rating,[2]; [26],0
same,"Plant response rating, Velvetleaf",[2]; [27],0
same,Velvetleaf plant response rating,[2]; [28],1
same,Bedstraw plant response rating,[3]; [21],5
same,Bedstraw plant response rating,[3]; [22],0
same,Bedstraw plant response rating (0 to 10 scale),[3]; [23],0
same,Bedstraw plant response rating,[3]; [24],0
same,Bedstraw plant response rating,[3]; [25],2
same,Bedstraw plant response rating,[3]; [26],2
same,"Plant response rating, Bedstraw",[3]; [27],6
same,Bedstraw plant response rating,"[3]; Rate 500 g/ha, Postemergence, scale 0 to 10, 0 no effect, 10 complete control",6
same,Rape plant response rating,[4]; [21],2
same,Rape plant response rating,[4]; [22],0
same,Rape plant response rating (0 to 10 scale),[4]; [23],0
same,Rape plant response rating,[4]; [24],6
same,Rape plant response rating,[4]; [25],9
same,Rape plant response rating,[4]; [26],1
same,"Plant response rating, Rape",[4]; [27],3
same,Rape plant response rating,[4]; [28],4
same,Sugarbeets plant response rating,[5]; [21],3
same,Sugarbeets plant response rating,[5]; [22],4
same,Sugarbeets plant response rating (0 to 10 scale),[5]; [23],6
same,Sugarbeets plant response rating,[5]; [24],8
same,Sugarbeets plant response rating,[5]; [25],10
same,Sugarbeets plant response rating,[5]; [26],2
same,"Plant response rating, Sugarbeets",[5]; [27],4
same,Sugarbeets plant response rating,[5]; [28],4
same,B. signalgrass plant response rating,[6]; [21],3
same,B. signalgrass plant response rating,[6]; [22],0
same,B. signalgrass plant response rating (0 to 10 scale),[6]; [23],5
same,B. signalgrass plant response rating,[6]; [24],7
same,B. signalgrass plant response rating,[6]; [25],7
same,B. signalgrass plant response rating,[6]; [26],0
same,"Plant response rating, B. signalgrass",[6]; [27],5
same,B. signalgrass plant response rating,"[6]; Rate 500 g/ha, Postemergence, scale of 0 to 10 where 0 is no effect and 10 is complete control",7
same,Wild oats plant response rating,[7]; [21],1
same,Wild oats plant response rating,[7]; [22],6
same,Wild oats plant response rating (0 to 10 scale),[7]; [23],6
same,Wild oats plant response rating,[7]; [24],6
same,Wild oats plant response rating,[7]; [25],8
same,Wild oats plant response rating,[7]; [26],0
same,"Plant response rating, Wild oats",[7]; [27],5
same,Wild oats plant response rating,[7]; [28],5
same,Soybean plant response rating,[8]; [21],4
same,Soybean plant response rating,[8]; [22],0
same,Soybean plant response rating (0 to 10 scale),[8]; [23],0
same,Soybean plant response rating,[8]; [24],0
same,Soybean plant response rating,[8]; [25],0
same,Soybean plant response rating,[8]; [26],4
same,"Plant response rating, Soybean",[8]; [27],4
same,Soybean plant response rating,[8]; [28],5
same,Corn plant response rating,[9]; [21],0
same,Corn plant response rating,[9]; [22],0
same,Corn plant response rating (0 to 10 scale),[9]; [23],0
same,Corn plant response rating,[9]; [24],0
same,Corn plant response rating,[9]; [25],0
same,Corn plant response rating,[9]; [26],0
same,"Plant response rating, Corn",[9]; [27],0
same,Corn plant response rating,[9]; [28],0
same,Giant foxtail plant response rating,[10]; [21],8
same,Giant foxtail plant response rating,[10]; [22],7
same,Giant foxtail plant response rating (0 to 10 scale),[10]; [23],9
same,Giant foxtail plant response rating,[10]; [24],9
same,Giant foxtail plant response rating,[10]; [25],10
same,Giant foxtail plant response rating,[10]; [26],5
same,"Plant response rating, Giant foxtail",[10]; [27],8
same,Giant foxtail plant response rating,[10]; [28],9
same,S. Flatsedge plant response rating,[11]; [17],0
same,S. Flatsedge plant response rating,[11]; [18],0
same,"Plant response rating, S. Flatsedge",[11]; [19],0
same,S. Flatsedge plant response rating,[11]; [20],2
same,Redroot pigweed plant response rating,[12]; [21],2
same,Redroot pigweed plant response rating,[12]; [22],7
same,Redroot pigweed plant response rating (0 to 10 scale),[12]; [23],9
same,Redroot pigweed plant response rating,[12]; [24],9
same,Redroot pigweed plant response rating,[12]; [25],10
same,Redroot pigweed plant response rating,[12]; [26],2
same,Redroot pigweed plant response rating,[12]; [28],5
same,Ducksalad plant response rating,[13]; [17],0
same,Ducksalad plant response rating,[13]; [18],0
same,"Plant response rating, Ducksalad",[13]; [19],0
same,Ducksalad plant response rating,[13]; [20],0
same,Wheat plant response rating,[14]; [21],1
same,Wheat plant response rating,[14]; [22],0
same,Wheat plant response rating (0 to 10 scale),[14]; [23],3
same,Wheat plant response rating,[14]; [24],3
same,Wheat plant response rating,[14]; [25],6
same,Wheat plant response rating,[14]; [26],0
same,"Plant response rating, Wheat",[14]; [27],3
same,Wheat plant response rating,[14]; [28],5
same,Nutsedge plant response rating,[15]; [21],0
same,Nutsedge plant response rating,[15]; [22],0
same,Nutsedge plant response rating (0 to 10 scale),[15]; [23],0
same,Nutsedge plant response rating,[15]; [24],0
same,Nutsedge plant response rating,[15]; [25],0
same,Nutsedge plant response rating,[15]; [26],0
same,"Plant response rating, Nutsedge",[15]; [27],0
same,Nutsedge plant response rating,[15]; [28],0
same,Cocklebur plant response rating,[16]; [21],0
same,Cocklebur plant response rating (0 to 10 scale),[16]; [23],0
same,Cocklebur plant response rating,[16]; [24],0
same,Cocklebur plant response rating,[16]; [25],0
same,Cocklebur plant response rating,[16]; [26],0
same,"Plant response rating, Cocklebur",[16]; [27],0
same,Cocklebur plant response rating,[16]; [28],3
